Patent US20240101958A1, “NOVEL HUMAN ERYTHROID PROGENITOR CELL LINE HIGHLY […] B19 INFECTION AND USES THEREOF” (priority 2020, published 2024)

Assays:
B19V = B19V infection of hematopoietic cell lines, VP2 mRNA by RT-qPCR normalized to beta-actin; conditions: for decrease of B19V infection by a factor: UT7/Epo-STI cells treated two days before B19V infection (JQ1 0.5 μM, TGF-β 2 ng/mL), 72 h post-inoculation
Protocol: Three distinct UT-7/Epo cell lines were used: 1) UT-7/Epo-S1, a subclone of UT-7/Epo (16), was obtained from Dr Kazuo Sugamura (Tohoku University Graduate School of Medicine, Japan). 2) UT-7/Epo and UT7/Epo-Cl3, a subclone isolated from UT-7/Epo3) UT7/Epo-STI cells were derived from UT-7/GM cell line and were maintained at low passage, with stringency for erythroid features. UT-7 cells were maintained at 37° C., under an atmosphere containing 5% CO2, in alpha minimum essential medium (αMEM) supplemented with 10% fetal calf serum (FCS), 2 mM L-glutamine (Hyclone), 100 U/mL penicillin, 100 μg/mL streptomycin and 2 U/mL recombinant human Erythropoietin (rh-Epo, Euromedex, RC213-15). Where specified, 0.5 μM JQ1 (Sigma-Aldrich, France) or 2 ng/mL TGF-β (Peprotech, France) was added to the culture medium for two days before B19V infection. TF1 (12) and TF1-ER erythroleukemia cells were maintained in Roswell Park Memorial Institute (RPM!) 1640 medium supplemented with 10% FCS, 2 mM L-glutamine (Hyclone), 100 U/mL penicillin, 100 μg/mL streptomycin and 2 U/mL rh-Epo or 5 ng/mL human granulocyte macrophage colony-stimulating factor (GM-CSF, Peprotech).
Plasma samples containing high titers of infectious B19V from asymptomatic blood donors were provided by the Etablissement Français du Sang (EFS). Plasma samples were determined to be negative for both B19V IgG and IgM, with a viral titer of 10^11 B19V DNA genome equivalent (ge)/mL. Briefly, cells were maintained in exponential growth condition by dilution to 0.3×10^6 cells/mL the day before infection. On the day of infection, cells were washed and diluted in FCS-free medium without Epo, at a density of 10·10^6 cells/mL. B19V inoculation was carried out in a 96-well plate, with 10 μL of cell suspension (10^5 cells) and 50 μL of a 100-fold dilution of B19V plasma (10^9 ge/mL), corresponding to a mean of 500 ge/cell. The cells were then incubated at 4° C. for 2 h, and then at 37° C., for 1 h, under an atmosphere containing 5% CO2. We added 140 μL of complete medium and maintained the cells in culture until 72 h. Where specified, we added chloroquine (CQ) to the complete medium, at a final concentration of 25 μM. Cell viability was assessed by trypan blue exclusion test (0.4% in PBS, Thermo Fisher Scientific), by counting blue and total cells under a microscope, with a hemocytometer. After correction for the dilution factor, viability was calculated as follows: % viable cells=[1−(number of blue cells/number of total cell)]×100. At 24, 48 or 72 h post infection (hpi), cells were centrifuged (8 mins at 300×g), supernatants were discarded and cell pellets were frozen at −80° C. until analysis.
Total RNA was extracted from cell pellets with the RNeasy 96 QIAcubeHT kit and a QIAcubeHT machine, according to the manufacturer's instructions. The extraction step included DNase treatment for 15 minutes, to decrease the risk of genomic DNA amplification during PCR. Real-time reverse transcription-quantitative PCR (RT-qPCR) was performed with the Taqman Fast Virus one-step PCR kit (Applied Biosystems). […] For control and normalization with respect to the number of cells, we used a duplex strategy. […] Reactions were performed on 5 μL of extracted RNA with the QuantStudio 3 PCR system and. The reaction began with reverse transcription at 48° C. for 15 mins, followed by inactivation of the reverse transcriptase and activation of the polymerase by heating at 95° C. for 10 mins, followed by 40 cycles of 15s at 95° C. and 30 s at 60° C. […]

B19 = experiment: Production of B19 genome copies equivalent per mL of cell culture, qPCR; format: cell-based, Human Parvovirus B19; conditions: UT7/Epo-E2 cell line after chloroquine treatment, 96 h post infection
Protocol: Cells (day 8 CD36^+EPC, UT7/Epo-S1, UT7/Epo-STI and UT7/Epo-E2) were inoculated with B19. 24 h after inoculation (24 hpi), cells were washed. 3 days later (96 hpi), supernatant was collected, DNA was isolated and B19 DNA was quantified by qPCR according to a B19 DNA standard (GenBank accession no. AY386330). Results are means±SD of 3 independent experiments. For CD36+ EPC, results are means±SD of three day-8 erythroid culture from CD34+ hematopoietic stem cells isolated from 3 different umbilical cord blood.
B19 genome production (FIG. 12) and transcription (FIG. 13) was evaluated at 96h post infection in CD36+EPC cells (day 8) and UT7 cell lines with or without addition of chloroquine (FIG. 13A and B). 96 h post infection, DNA was extracted from an aliquot of 1 mL of cell culture and RNA from cell pellets. B19 genome production was evaluated by qPCR and genome equivalent (GEq)/mL was calculated according to a B19 genome calibration curve. Transcription was analysed by RT-qPCR as previously described. […] UT7/Epo-E2 cell line presents the highest quantity of B19 genome equivalent produced, with at least 7.65×10^7 GEq/mL after chloroquine treatment. […]

Molecule | decrease of B19V infection by a factor (B19V) | quantity of B19 genome equivalent produced (B19) | VP2 expression (B19V; TF1 and TF1-ER cells, under GM-CSF or Epo, with or without chloroquine treatment) | enhancement of UT7/Epo-S1 sensitivity to B19V (relative B19 mRNA expression) (B19V; UT7/Epo-S1 cells, chloroquine 25 μM, 72 h post-infection) [fold] | relative B19 mRNA level (VP2), UT7/Epo-S1 without chloroquine set to 1 (B19V; UT7/Epo-STI cells + chloroquine 25 μM, 72 h post-infection)
Cc1sc2c(c1C)C(c1ccc(Cl)cc1)=N[C@@H](CC(=O)OC(C)(C)C)c1nnc(C)n1-2 [JQ1] | about 10 |  |  |  | 
CCN(CC)CCCC(C)Nc1ccnc2cc(Cl)ccc12 (racemic) [Chloroquine, (RS)-N-(7-chloroquinolin-4-yl)-N,N-diéthyl-pentane-1,4-diamine] |  | at least 7.65×10^7 GEq/mL | undetectable | 5 | 25.8+4.9
TGF-B: hormonal induction of erythroid differentiation (Peprotech) | about 10 |  |  |  | 
